Format in all cases: cell-based, human
The test system of one test is AGS cells (KRAS G12D). Description: Cell proliferation inhibition assay, 3D, CellTiter-Glo 3D, AGS. Particulars: AGS 3D sphere model, 5 days incubation. From the text: (§1) AsPC-1 was purchased from ATCC; catalog No: CRL-1682; AGS was purchased from ATCC; catalog No: CRL-1739; RPMI1640 was purchased from Gibco; catalog No: 11875-093 2235123; F12K was purchased from Gibco; catalog No: 21127-022; FBS was purchased from Gibco; catalog No: 10099-141C; trypsin (containing EDTA) was purchased from Gibco; catalog No: 25200-072; CellTiter Glo-3D was purchased from Progema; catalog No: G9683; 384-well sphere plates were purchased from Corning; catalog No: 3830; white opaque 384-well plates were purchased from Corning; catalog No: 3570; cell counters were purchased from CHEMOMETEC; model: NC-200; microplate reader was purchased from PerkinElmer; model: Envison;
(§2) AsPC-1 is an endogenous human pancreatic cancer cell containing KRAS^G12D mutation, cultured in RPMI-1640 medium containing 10% FBS; AGS is a human gastric cancer cell line containing KRAS^G12D, cultured in F-12K medium containing 10% FBS. Cells in the logarithmic growth phase were taken, digested with trypsin (containing EDTA), collected, and counted. 800 AsPC-1 cells/well or 400 AGS cells/well, respectively, were seeded in a 384-well sphere plate and cultured overnight at 5% CO2 to establish a 3D cell model. 1000X stock solutions of compounds at a 3.16-fold concentration gradient of were prepared using DMSO, diluted 100-fold into a 10X compound stock solution using the medium described above. The 10X compound stock solution was added to each cell on 2nd day after cell seeding at a final concentration of 1X and a DMSO content of 0.1%. DMSO was used as a control in the experiment, and the medium was used as blank. After the addition of the compounds, the cells were incubated for 5 days. 30 μl of CellTiter-Glo work solution was added to each well, mixed well, and incubated for 30 minutes. After standing at room temperature for 30 minutes, 40 μl of the mixed solution was transferred to an opaque 384-well plate with a white clear bottom. Luminescence chemiluminescence value was read by a microplate reader, and the cell proliferation inhibition rate (IR (%)=(RLU control-RLU compound)/(RLU control-RLU blank)×100%) was calculated. The gradiently diluted concentration of the compounds and corresponding cell proliferation inhibition rate were fitted using XLFit four-parameters method, and the IC50 value was calculated. […] The results of some exemplary compounds are shown in Table 2 (“−” represents untested).
A general note: ATP-based viability assays read luminescence as a measure of living cells.

Test [1] deals with p-ERK in AGS cells (KRAS G12D mutation). Description: Cell p-ERK assay (HTRF, Advance ERK phospho-T202/Y204 kit). The settings on record: AGS cells, 3 hours incubation with compound, HTRF, read-out: AGS p-ERK IC50. As to the method: AGS was purchased from ATCC; catalog No: CRL-1739; F12K was purchased from Gibco; catalog No: 21127-022; FBS was purchased from Gibco; catalog No: 10099-141C; trypsin (containing EDTA) was purchased from Gibco, catalog No: 25200-072; DMSO was purchased from VWRAMRESCO; catalog No: 0231-500 ML; 96-well cell culture plates were purchased from Corning; catalog No: 3599; white opaque 96-well plates were purchased from Cisbio; catalog No: 66PL96025; Advance ERK phospho-T202/Y204 kit was purchased from Cisbio; catalog No: 64AERPEH; cell counters were purchased from CHEMOMETEC; model No: NC-200; microplate reader was purchased from PerkinElmer; model No: Envison.
AGS is an endogenous human gastric adenocarcinoma cell line containing the KRAS^G12D mutation, cultured in F12K+10% FBS medium. On the first day of the experiment, cells in the logarithmic growth phase were taken, digested with trypsin (containing EDTA), collected, and counted. Approximately 20000 cells/well were seeded in a 96-well cell culture plate and cultured overnight in an incubator with 5% CO2. 1000X stock solutions of compounds at a 3.16-fold concentration gradient were prepared using DMSO, and diluted 200-fold into a 5X compound stock solution using the medium described above. The 5X compound stock solution was added to each cell culturing well the day after cell seeding at a final concentration of 1X and a DMSO content of 0.1%. DMSO was used as a control in the experiment. After the compound was added and the incubation was kept for 3 hours, the medium in the culture wells was removed. 50 μl of Cell lysis solution (from Advance ERK phospho-T202/Y204 kit, the same below) was added to each well, mixed well, and incubated for 30 minutes and then 16 μl of the mixed solution was transferred to a white opaque 96-well plate, another 16 μl of cell lysis solution was added to a well as a blank well. After transferring, 4 μl of p-ERK HTRF antibody mixture (from Advance ERK phospho-T202/Y204 kit) was added to each well. After incubation for 4 hours, HTRF fluorescence value (RLU) was read by a microplate reader, and p-ERK level inhibition rate (IR (%)=(RLU control-RLU compound)/(RLU control-RLU blank)×100%) of the compounds was calculated. The concentration of the compounds and corresponding cell p-ERK level inhibition rate were fitted using Prism 8 four-parameters method, and the IC50 value was calculated.

For test [2], the system named is AsPC-1 cells (KRAS G12D mutation). The test is described as follows: Cell proliferation inhibition assay, 3D, CellTiter-Glo 3D, AsPC-1. The settings on record: AsPC-1 3D sphere model, 5 days incubation.
From the text: as §1, §2

Like-named read-outs stand apart in the source and are kept apart here.

As to `C#Cc1c(F)ccc2cccc(-c3nc4c5c(nc(OCC67CC8(CC8)CN6CC6(CC6)C7)nc5c3F)N3C[C@H]5CC[C@H](N5)[C@H]3[C@H](C)O4)c12` [Example Z628], the half-maximal inhibitory concentration (IC50) with AGS cells (KRAS G12D) (Homo sapiens, 120 h) came out at 40 nM; in test [1] (Homo sapiens) it was 45.5 nM; in test [2] (Homo sapiens, ASPC1, 120 h) it was 144 nM.
`C#Cc1c(F)ccc2cccc(-c3nc4c5c(nc(OCC67CC(=C)CN6CC6(CC6)C7)nc5c3F)N3C[C@H]5CC[C@H](N5)[C@H]3[C@H](C)O4)c12` (stereo partly drawn) [Example Z599]: the values for the half-maximal inhibitory concentration (IC50) (in the test with AGS cells (KRAS G12D); in test [1]; in test [2]) were 10.8 nM, 27.6 nM and 22.3 nM, respectively.
As for `C#Cc1c(F)ccc2cc(N)cc(-c3nc4c5c(nc(OCC67CCCN6CC(F)(F)C7)nc5c3F)N3C[C@H]5CC[C@H](N5)[C@H]3[C@H](C)O4)c12` (stereo partly drawn) [Example Z722, 4-((5S,5aS,6S,9R)-12-((2,2-difluorotetrahydro-1H-pyrrolizin-7a (5H)-yl)methoxy)-1-fluoro-5-methyl-5a,6,7,8,9,10-hexahydro-5H-4-oxa-3,10a, 11,13,14-pentaaza-6,9-methanonaphtho[1,8-ab]heptalene-2-yl)-5-ethynyl-6-fluoronaphthalen-2-amine], the IC50 with AGS cells (KRAS G12D) (Homo sapiens, 120 h) was 12.8 nM; in test [1] (Homo sapiens), 7.22 nM; in test [2] (Homo sapiens, ASPC1, 120 h), 9.29 nM.
The like results for `C#Cc1c(F)ccc2cccc(-c3nc4c5c(nc(OCC67CC(=C)CN6C[C@H](OC)C7)nc5c3F)N3C[C@H]5CC[C@H](N5)[C@H]3[C@H](C)O4)c12` (stereo partly drawn) [Example Z691, (5S,5aS,6S,9R)-2-(8-Ethynyl-7-Fluoronaphthalen-1-Yl)-1-Fluoro-12-(((2R)-2-Methoxy-6-Methylenetetrahydro-1H-Pyrrolizin-7a (5H)-Yl)Methoxy)-5-Methyl-5a,6,7,8,9,10-Hexahydro-5H-4-Oxa-3,10a,11,13,14-Pentaaza-6,9-Methanonaphtho[1,8-Ab]Heptalene] were, in that order, 54.6 nM, 14.2 nM and 87.9 nM.
In the same order, the values of `C#Cc1cccc2c(F)c(N)cc(-c3nc4c5c(nc(OCC6(CN7CCOCC7)CC6)nc5c3F)N3C[C@H]5CC[C@H](N5)[C@H]3[C@H](C)O4)c12` [Example Z715, 5-ethynyl-1-fluoro-4-((5S,5aS,6S,9R)-1-fluoro-5-methyl-12-((1-(morpholinomethyl)cyclopropyl)methoxy)-5a,6,7,8,9,10-hexahydro-5H-4-oxa-3,10a, 11,13, 14-pentaaza-6,9-methanonaphtho[1,8-ab]heptalen-2-yl) naphthalen-2-amine] are 3.44 nM, 1.94 nM and 3.83 nM.
In the same order, the values of `Cc1cc(N)c(C)c(-c2nc3c4c(nc(OCC5(CN6CCOCC6)CC5)nc4c2F)N2C[C@H]4CC[C@H](N4)[C@H]2[C@H](C)O3)c1C1CC1` [Example Z717, 4-cyclopropyl-3-((5S,5aS,6S,9R)-1-fluoro-5-methyl-12-((1-(morpholinomethyl)cyclopropyl)methoxy)-5a,6,7,8,9,10-hexahydro-5H-4-oxa-3,10a, 11,13,14-pentaaza-6,9-methanonaphtho[1,8-ab]heptalen-2-yl)-2,5-dimethylaniline] are 29.1 nM, 14.8 nM and 50.2 nM.
Compound `C#Cc1c(F)ccc2cccc(-c3nc4c5c(nc(OCC67CC(=C)CN6C[C@@H](F)C7)nc5c3F)N3C[C@H]5CC[C@H](N5)[C@H]3[C@H](C)O4)c12` (stereo partly drawn) [Example Z634, (5S,5aS,6S,9R)-2-(8-ethynyl-7-fluoronaphthalen-1-yl)-1-fluoro-12-(((2S)-2-fluoro-6-methylenetetrahydro-1H-pyrrolizin-7a (5H)-yl)methoxy)-5-methyl-5a,6,7,8,9,10-hexahydro-5H-4-oxa-3,10a,11,13,14-pentaaza-6,9-methanonaphtho[1,8-ab]heptalene] displayed a concentration for half-maximal inhibition (IC50) in test [2] (Homo sapiens, ASPC1, 120 h) of 883 nM.
For the compound `C#Cc1c(F)ccc2cccc(-c3nc4c5c(nc(OCC67CC(=C)CN6CC[C@H]7OC)nc5c3F)N3C[C@H]5CC[C@H](N5)[C@H]3[C@H](C)O4)c12` (stereo partly drawn) [Example Z704, (58,5aS,6S,9R)-2-(8-ethynyl-7-fluoronaphthalen-1-yl)-1-fluoro-12-(((1R)-1-methoxy-6-methylenetetrahydro-1H-pyrrolizin-7a (5H)-yl)methoxy)-5-methyl-5a,6,7,8,9,10-hexahydro-5H-4-oxa-3,10a, 11, 13,14-pentaaza-6,9-methanonaphtho[1,8-ab]heptalene], the 50% inhibitory concentration (IC50) was 542 nM in test [1] (Homo sapiens) and 688 nM in test [2] (Homo sapiens, ASPC1, 120 h).
Consider `C#Cc1c(F)ccc2cccc(-c3nc4c5c(nc(OCC67C[C@H](OC)CN6CCC7=C)nc5c3F)N3C[C@H]5CC[C@H](N5)[C@H]3[C@H](C)O4)c12` (stereo partly drawn) [Example Z694, (5S,5aS,6S,9R)-2-(8-ethynyl-7-fluoronaphthalen-1-yl)-1-fluoro-12-(((6S)-6-methoxy-1-methylenetetrahydro-1H-pyrrolizin-7a (5H)-yl)methoxy)-5-methyl-5a,6,7,8,9,10-hexahydro-5H-4-oxa-3,10a, 11,13,14-pentaaza-6,9-methanonaphtho[1,8-ab]heptalene], for which the concentration for half-maximal inhibition (IC50) in the test with AGS cells (KRAS G12D) (Homo sapiens, 120 h) stood at 397 nM; in test [2] (Homo sapiens, ASPC1, 120 h), 405 nM.
In the same order, the values of `C=C1CN2CCCC2(COc2nc3c4c(nc(-c5cccc6cccc(Cl)c56)c(F)c4n2)O[C@@H](CC)[C@@H]2[C@@H]4CC[C@H](CN32)N4)C1` (stereo partly drawn) [Example Z596, (5S,5aS,6S,9R)-2-(8-chloronaphthalen-1-yl)-5-ethyl-1-fluoro-12-((2-methylenetetrahydro-1H-pyrrolizin-7a (5H)-yl)methoxy)-5a,6,7,8,9,10-hexahydro-5H-4-oxa-3,10a,11,13,14-pentaaza-6,9-methanonaphtho[1,8-ab]heptalene] are 268 nM and 411 nM.
As for `C=C1CN2C[C@H](F)CC2(COc2nc3c4c(nc(-c5cc(N)nc(C)c5C5CC5)c(F)c4n2)O[C@@H](C)[C@@H]2[C@@H]4CC[C@H](CN32)N4)C1` (stereo partly drawn) [Example Z680, 5-Cyclopropyl-4-((58,5aS,6S,9R)-1-Fluoro-12-(((2R)-2-Fluoro-6-Methylenetetrahydro-1H-Pyrrolizin-7a (5H)-Yl)Methoxy)-5-Methyl-5a,6,7,8,9,10-Hexahydro-5H-4-Oxa-3,10a,11,13,14-Pentaaza-6,9-Methanonaphtho[1,8-Ab]Heptalen-2-Yl)-6-Methylpyridin-2-Amine], the 50% inhibitory concentration (IC50) in the test with AGS cells (KRAS G12D) (Homo sapiens, 120 h) turned out to be 386 nM; in test [1] (Homo sapiens), 143 nM.

By IC50 is commonly meant the midpoint of a concentration-inhibition curve.

The values above are taken from patent US20250186456A1, “PYRIMIDINE-FUSED CYCLIC COMPOUND AND PREPARATION METHOD AND USE THEREOF” (Genfleet Therapeutics (Shanghai) Inc., priority 2021, published 2025).
